Reference: US8084466B2, “Bicyclic heteroaryl-substituted imidazoles as modulators of the histamine H4 receptor” (Janssen Pharmaceutica NV, priority 2007, dated 2011)

Molecular target: T1, human histamine H4 receptor (Homo sapiens, UniProt Q9H3N8)
T1 construct: expressed in transfected cells; host or cells: SK-N-MC cells or COS7 cells, transient transfection with pH4R; cell membranes
Test: Binding Assay on Recombinant Human Histamine H4 Receptor
Details: competition binding with 3H-histamine (5 nM; KD 5 nM), membranes of SK-N-MC or COS7 cells expressing human H4 receptor; average of results; > = highest value tested
Description: Biological Methods: Binding Assay on Recombinant Human Histamine H4 Receptor
SK-N-MC cells or COS7 cells were transiently transfected with pH4R and grown in 150 cm^2 tissue culture dishes. Cells were washed with saline solution, scraped with a cell scraper and collected by centrifugation (1000 rpm, 5 min). Cell membranes were prepared by homogenization of the cell pellet in 20 mM Tris-HCl with a polytron tissue homogenizer for 10 sec at high speed. Homogenate was centrifuged at 1000 rpm for 5 min at 4° C. The supernatant was then collected and centrifuged at 20,000×g for 25 min at 4° C. The final pellet was resuspended in 50 mM Tris-HCl. Cell membranes were incubated with ^3H-histamine (5-70 nM) in the presence or absence of excess histamine (10,000 nM). Incubation occurred at room temperature for […]. Membranes were harvested by rapid filtration over Whatman GF/C filters and washed 4 times with ice-cold 50 mM Tris HCl. Filters were then dried, mixed with scintillant and counted for radioactivity. SK-N-MC or COS7 cells expressing human histamine H4 receptor were used to measure the affinity of binding of other compounds and their ability to displace ^3H-ligand binding by incubating the above-described reaction in the presence of various concentrations of inhibitor or compound to be tested. For competition binding studies using ^3H-histamine, Ki values were calculated, based on an experimentally determined KD value of 5 nM and a ligand concentration of 5 nM, according to Y.-C.

| Ki [µM] | SMILES |
| --- | --- |
| 2 | CC(C)(C)c1ccc2[nH]c(-c3ccc4c(c3)c(Cl)cn4CCCC3CCNCC3)nc2c1 [Example 34, 5-tert-Butyl-2-[3-chloro-1-(3-piperidin-4-yl-propyl)-1H-indol-5-yl]-1H-benzoimidazole] |
| 0.683 | Cc1c(F)ccc2[nH]c(-c3cccc4c3ccn4CCCCC3CCNCC3)nc12 [Example 35, 5-Fluoro-4-methyl-2-[1-(4-piperidin-4-yl-butyl)-1H-indol-4-yl]-1H-benzoimidazole] |
| 2.33 | Clc1cccc2[nH]c(-c3cccc4c3ccn4CCCCC3CCNCC3)nc12 [Example 36, 4-Chloro-2-[1-(4-piperidin-4-yl-butyl)-1H-indol-4-yl]-1H-benzoimidazole] |
| 2.23 | Cc1cc(C)c2nc(-c3ccc4ccn(CCCCC5CCNCC5)c4c3)[nH]c2c1 [Example 37, 4,6-Dimethyl-2-[1-(4-piperidin-4-yl-butyl)-1H-indol-6-yl]-1H-benzoimidazole] |
| 1.14 | Cc1c(F)ccc2[nH]c(-c3ccc4ccn(CCCCC5CCNCC5)c4c3)nc12 [Example 38, 5-Fluoro4-methyl-2-[1-(4-piperidin-4-yl-butyl)-1H-indol-6-yl]-1H-benzoimidazole] |
| 2.92 | CN(C)Cc1cn(CCCCC2CCNCC2)c2ccc(-c3nc4cc(C(C)(C)C)ccc4[nH]3)cc12 [Example 39, [5-(5-tert-Butyl-1H-benzoimidazol-2-yl)-1-(4-piperidin-4-yl-butyl)-1H-indol-3-ylmethyl]-dimethyl-amine] |
| 0.065 | Cc1c(F)ccc2[nH]c(-c3ccc4c(c3)ncn4CCCC3CCN(C)CC3)nc12 [Example 40, 5-Fluoro-4-methyl-1′-[3-(1-methyl-piperidin-4-yl)-propyl]-1H,1′H-[2,5′]bibenzoimidazolyl] |
| 0.397 | Cc1c(F)ccc2[nH]c(-c3ccc4ncn(CCCC5CCN(C)CC5)c4c3)nc12 [Example 41, 5-Fluoro-4-methyl-3′-[3-(1-methyl-piperidin-4-yl)-propyl]-1H,3′H-[2,5′]bibenzoimidazolyl] |
| 2 | Cc1cccc2[nH]c(-c3ccc4c(c3)ncn4CCCCC3CCN(C)CC3)nc12 [Example 42, 4-Methyl-1′-[4-(1-methyl-piperidin-4-yl)-butyl]-1H,1′H-[2.5′]bibenzoimidazolyl] |
| 1.67 | Cc1cccc2[nH]c(-c3ccc4ncn(CCCCC5CCN(C)CC5)c4c3)nc12 [Example 43, 4-Methyl-3′-[4-(1-methyl-piperidin-4-yl)-butyl]-1H,3′H-[2,5′]bibenzoimidazolyl] |
| 3 | Cc1c(F)ccc2[nH]c(-c3ccc4c(c3)ncn4CCCCC3CCN(C)CC3)nc12 [Example 44, 5-Fluoro-4-methyl-1′-[4-(1-methyl-piperidin-4-yl)-butyl]-1H,1′H-[2.5′]bibenzoimidazolyl] |
| 1.67 | Cc1c(F)ccc2[nH]c(-c3ccc4ncn(CCCCC5CCN(C)CC5)c4c3)nc12 [Example 45, 5-Fluoro-4-methyl-3′-[4-(1-methyl-piperidin-4-yl)-butyl]-1H,3′H-[2,5′]bibenzoimidazolyl] |
| 0.012 | Cc1c(F)ccc2[nH]c(-c3cnc4c(ccn4CCCC4CCN(C)CC4)c3)nc12 [Example 46, 5-Fluoro-4-methyl-2-{1-[3-(1-methyl-piperidin-4-yl)-propyl]-1H-pyrrolo[2,3-b]pyridin-5-yl}-1H-benzoimidazole] |
| 0.056 | Cc1ccc2[nH]c(-c3cnc4c(ccn4CCCC4CCN(C)CC4)c3)nc2c1C [Example 47, 4,5-Dimethyl-2-{1-[3-(1-methyl-piperidin-4-yl)-propyl]-1H-pyrrolo[2,3-b]pyridin-5-yl}-1H-benzoimidazole] |
| 1.03 | CN1CCC(CCCn2ccc3cc(-c4nc5c(F)cc(F)cc5[nH]4)c(Cl)cc32)CC1 [Example 48, 2-{6-Chloro-1-[3-(1-methyl-piperidin-4-yl)-propyl]-1H-indol-5-yl}-4,6-difluoro-1H-benzoimidazole] |
| 1.73 | Cc1c(F)ccc2[nH]c(-c3cc4ccn(CCCC5CCNCC5)c4cc3Cl)nc12 [Example 49, 2-[6-Chloro-1-(3-piperidin-4-yl-propyl)-1H-indol-5-yl]-5-fluoro-4-methyl-1H-benzoimidazole] |
| 3.33 | Cc1c(F)ccc2[nH]c(-c3cc4ccn(CCCC5CCN(C)CC5)c4cc3Cl)nc12 [Example 50, 2-{6-Chloro-1-[3-(1-methyl-piperidin-4-yl)-propyl]-1H-indol-5-yl}-5-fluoro-4-methyl-1H-benzoimidazole] |
| 0.007 | Cc1c(F)ccc2[nH]c(-c3ccc4c(ncn4CCCC4CCN(C)CC4)c3C)nc12 [Example 51, 5-Fluoro-4,4′-dimethyl-1′-[3-(1-methyl-piperidin-4-yl)-propyl]-1H,1′H-[2,5′]bibenzoimidazolyl] |

| Ki [µM] | SMILES |
| --- | --- |
| 0.033 | Cc1ccc2[nH]c(-c3ccc4c(ncn4CCCC4CCN(C)CC4)c3C)nc2c1C [Example 52, 5,4′-Trimethyl-1′-[3-(1-methyl-piperidin-4-yl)-propyl]-1H,1′H-[2,5′]bibenzoimidazolyl] |
| 0.015 | Cc1cccc2[nH]c(-c3ccc4c(ncn4CCCC4CCN(C)CC4)c3C)nc12 [Example 53, 4,4′-Dimethyl-1′-[3-(1-methyl-piperidin-4-yl)-propyl]-1H,1′H-[2,5′]bibenzoimidazolyl] |
| 0.001 | Cc1c(Cl)ccc2[nH]c(-c3ccc4c(ncn4CCCC4CCN(C)CC4)c3C)nc12 [Example 54, 5-Chloro-4,4′-dimethyl-1′-[3-(1-methyl-piperidin-4-yl)-propyl]-1H ,1′H-[2,5′]bibenzoimidazolyl] |
| 0.004 | Cc1cc(F)cc2[nH]c(-c3ccc4c(ncn4CCCC4CCN(C)CC4)c3C)nc12 [Example 55, 6-Fluoro-4,4′-dimethyl-1′-[3-(1-methyl-piperidin-4-yl)-proyl]-1H,1′H-[2,5′]bibenzoimidazolyl] |
| 1.9 | Cc1ccc2[nH]c(-c3ccc4c(c3)CCN4CCCC3CCNCC3)nc2c1C [Example 56, 4,5-Dimethyl-2-[1-(3-piperidin-4-yl-propyl)-2,3-dihydro-1H-indol-5-yl]-1H-benzoimidazole] |
| 0.005 | Cc1cc(C)c2nc(-c3ccc4c(c3C)CCN4CCCC3CCN(C)CC3)[nH]c2c1 [Example 57, 4,6-Dimethyl-2-{4-methyl-1-[3-(1-methyl-piperidin-4-yl)-propyl]-2,3-dihydro-1H-indol-5-yl}-1H-benzoimidazole] |
| 0.019 | Cc1c(-c2nc3cc(Cl)ccc3[nH]2)ccc2c1CCN2CCCC1CCN(C)CC1 [Example 58, 5-Chloro-2-{4-methyl-1-[3-(1-methyl-piperidin-4-yl)-propyl]-2,3-dihydro-1H-indol-5-yl}-1H-benzoimidazole] |
| 0.018 | Cc1c(-c2nc3c(C)cc(F)cc3[nH]2)ccc2c1CCN2CCCC1CCN(C)CC1 [Example 59, 6-Fluoro-4-methyl-2-{4-methyl-1-[3-(1-methyl-piperidin-4-yl)-propyl]-2,3-dihydro-1H-dihydro-1H-indol-5-yl}-1H-benzoimidazole] |
| 0.091 | Cc1nc2c(ccc3[nH]c(-c4ccc5c(c4C)CCN5CCCC4CCN(C)CC4)nc32)s1 [Example 60, 2-Methyl-7-{4-methyl-1-[3-(1-methyl-piperidin-4-yl)-propyl]-2,3-dihydro-1H-indol-5-yl}-6H-imidazo[4′,5′:3,4]benzo[2,1-d]thiazole] |
| 0.135 | Cc1cc(C)c2nc(-c3ccc4c(ccn4CCCC4CCN(C)CC4)c3)[nH]c2c1 [Example 61] |
| 1.31 | Cc1ccc2[nH]c(-c3ccc4c(ccn4CCCN4CCNCC4)c3)nc2c1C [Example 62, 4,5-Dimethyl-2-[1-(3-piperazin-1-yl-propyl)-1H-indol-5-yl]-1H-benzoimidazole] |
| 1.68 | CC(C)(C)c1ccc2[nH]c(-c3ccc4c(ccn4CCCN4CCNCC4)c3)nc2c1 [Example 63, 5-tert-Butyl-2-[1-(3-piperazin-1-yl-propyl)-1H-indol-5-yl]-1H-benzoimidazole] |
| 1.52 | Clc1ccc2[nH]c(-c3ccc4c(ccn4CCCN4CCNCC4)c3)nc2c1 [Example 64, 5-Chloro-2-[1-(3-piperazin-1-yl-propyl)-1H-indol-5-yl]-1H-benzoimidazole] |
| 0.145 | CN1CCN(CCCn2ccc3cc(-c4nc5cc(Cl)ccc5[nH]4)ccc32)CC1 [Example 65, 5-Chloro-2-{1-[3-(4-methyl-piperazin-1-yl)-propyl]-1H-indol-5-yl}-1H-benzoimidazole] |
| 1.18 | Cc1cccc2[nH]c(-c3cccc4c3ccn4CCCCC3CCNCC3)nc12 [Example 66, 4-Methyl-2-[1-(4-piperidin-4-yl-butyl)-1H-indol-4-yl]-1H-benzoimidazole] |
| 0.184 | CN1CCC(CCCCn2ccc3c(-c4nc5cc(F)c(F)cc5[nH]4)cccc32)CC1 [Example 67, 5,6-Difluoro-2-{1-[4-(1-methyl-piperidin-4-yl)-butyl]-1H-indol-4-yl}-1H-1 5 benzoimidazole] |
| 0.343 | CN1CCC(CCCCn2ccc3c(-c4nc5cc(Cl)ccc5[nH]4)cccc32)CC1 [Example 68, 5-Chloro-2-{1-[4-(1-methyl-piperidin-4-yl)-butyl]-1H-indol-4-yl}-1H-benzoimidazole] |
| 0.325 | CN1CCC(CCCCn2ccc3c(-c4nc5cc(F)ccc5[nH]4)cccc32)CC1 [Example 69, 5-Fluoro-2-{1-[4-(1-methyl-piperidin-4-yl)-butyl]-1H-indol-4-yl}-1H-benzoimidazole] |
